Target: T1, BRD9 (Homo sapiens, UniProt Q9H8M2)
T1 sequence (Q9H8M2 1-597): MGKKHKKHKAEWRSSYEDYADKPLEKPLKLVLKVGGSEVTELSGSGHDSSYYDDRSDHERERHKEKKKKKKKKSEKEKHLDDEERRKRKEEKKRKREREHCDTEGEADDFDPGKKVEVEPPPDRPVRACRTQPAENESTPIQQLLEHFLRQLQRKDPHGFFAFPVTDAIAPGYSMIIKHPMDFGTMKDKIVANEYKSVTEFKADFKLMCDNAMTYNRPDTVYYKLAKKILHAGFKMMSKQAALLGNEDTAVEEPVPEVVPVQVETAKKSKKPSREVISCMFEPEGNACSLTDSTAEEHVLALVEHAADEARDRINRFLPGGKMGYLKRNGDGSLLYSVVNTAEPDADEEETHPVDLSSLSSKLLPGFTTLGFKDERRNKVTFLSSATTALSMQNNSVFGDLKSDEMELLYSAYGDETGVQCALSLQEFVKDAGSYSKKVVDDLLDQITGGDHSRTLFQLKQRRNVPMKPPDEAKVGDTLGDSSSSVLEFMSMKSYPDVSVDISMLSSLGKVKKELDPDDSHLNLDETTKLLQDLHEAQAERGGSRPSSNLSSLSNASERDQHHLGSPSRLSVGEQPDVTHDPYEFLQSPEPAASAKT
Assay: Degradation of BRD9 (IF), immunofluorescence in MV4-11 cells, 24 hours (Assay Protocol 2)
Format: cell-based
Design: A suspension of MV4-11 cells (ATCC CRL-9591) was prepared; host or cells: MV4-11
Conditions: BRD9 degradation; for DC50: Assay protocol 2, read-out: DC50; for Dmax: MV4-11, Assay protocol 2, read-out: Dmax
How it was run: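 % BRD9 remaining, scaled between DMSO (high) and 100 nM CFT-8634 (low) control wells, derives from mean Alexa 647 contrast in central nuclei by high-content imaging. MV4-11 cells had 24 h compound exposure at 37° C. before PFA fixation, Triton permeabilisation and anti-BRD9 E4Q3F immunostaining.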

Row | SMILES | DC50 | Dmax
1 | COc1cc(-c2cn(C)c(=O)c(C)c2C)cc(OC)c1CN1CCC(N(C)c2cccc3c2CCN(C(=O)/C(C#N)=C/C(C)(C)C)C3C)C(F)(F)C1 (mixture of isomers) [Compound C57] | 25 to 1000 nM | 40 to 70%
2 | COc1cc(-c2cn(C)c(=O)c(C)c2C)cc(OC)c1CN1CCCN(c2ccc3c(c2)[C@H](C)N(C(=O)/C(C#N)=C/C(C)(C)CF)CC3)CC1 (mixture of isomers) [Compound C68, (E/Z)-2-(7-(4-(2,6-dimethoxy-4-(1,4,5-trimethyl-6-oxo-1,6-dihydropyridin-3-yl)benzyl)-1,4-diazepan-1-yl)-1-methyl-1,2,3,4-tetrahydroisoquinoline-2-carbonyl)-5-fluoro-4,4-dimethylpent-2-enenitrile] | 25 to 1000 nM | 40 to 70%
3 | COc1cc(-c2cn(C)c(=O)c(C)c2C)cc(OC)c1CN1CCCN(c2ccc3c(c2)[C@@H](C)N(C(=O)/C(C#N)=C/C(C)(C)CF)CC3)CC1 (mixture of isomers) [Compound C69, (E/Z)-2-(7-(4-(2,6-dimethoxy-4-(1,4,5-trimethyl-6-oxo-1,6-dihydropyridin-3-yl)benzyl)-1,4-diazepan-1-yl)-1-methyl-1,2,3,4-tetrahydroisoquinoline-2-carbonyl)-5-fluoro-4,4-dimethylpent-2-enenitrile] | 10 to 25 nM | 40 to 70%
4 | COc1cc(-c2cn(C)c(=O)c(C)c2C)ccc1OC1CCN(Cc2cccc3c2CCN(C(=O)/C(C#N)=C/C(C)(C)C)C3C)C2(CC2)C1 (mixture of isomers) [Compound C72, (E/Z)-2-(5-((7-(2-methoxy-4-(1,4,5-trimethyl-6-oxo-1,6-dihydropyridin-3-yl)phenoxy)-4-azaspiro[2.5]octan-4-yl)methyl)-1-methyl-1,2,3,4-tetrahydroisoquinoline-2-carbonyl)-4,4-dimethylpent-2-enenitrile] | 25 to 1000 nM | > 75%
5 | COc1cc(-c2cn(C)c(=O)c(C)c2C)ccc1CC1CCN(Cc2cccc3c2CCN(C(=O)/C(C#N)=C/C(C)(C)C)C3C)C(C)(C)C1 (mixture of isomers) [Compound C74] | 25 to 1000 nM | > 75%
6 | COc1cc(-c2cn(C)c(=O)c(C)c2C)cc(OC)c1CN1CCN(S(=O)(=O)c2cccc3c2CCN(C(=O)/C(C#N)=C\C(C)(C)C)C3C)CC1 (mixture of isomers) [Compound C75, (E/Z)-2-(5-((4-(2,6-dimethoxy-4-(1,4,5-trimethyl-6-oxo-1,6-dihydropyridin-3-yl)benzyl)piperazin-1-yl)sulfonyl)-1-methyl-1,2,3,4-tetrahydroisoquinoline-2-carbonyl)-4,4-dimethylpent-2-enenitrile] | 25 to 1000 nM | > 75%
7 | COc1cc(-c2cn(C)c(=O)c(C)c2C)cc(OC)c1CN1CCC(Cc2cccc3c2CCN(C(=O)/C(C#N)=C/C(C)(C)CF)C3C(C)C)CC1 (mixture of isomers) [Compound C80] | 1.25 to 10 nM | 70 to 75%
8 | COc1cc(-c2cn(C)c(=O)c(C)c2C)cc(OC)c1CN1CCCN(Cc2cccc3c2CCN(C(=O)/C(C#N)=C/C(C)(C)CF)[C@@H]3C(C)C)CC1 (mixture of isomers) [Compound C84, (E/Z)-2-(5-((4-(2,6-dimethoxy-4-(1,4,5-trimethyl-6-oxo-1,6-dihydropyridin-3-yl)benzyl)-1,4-diazepan-1-yl)methyl)-1-isopropyl-1,2,3,4-tetrahydroisoquinoline-2-carbonyl)-5-fluoro-4-dimethylpent-2-enenitrile] | 1.25 to 10 nM | > 75%
9 | COc1cc(-c2cn(C)c(=O)c(C)c2C)cc(OC)c1CN(C)Cc1cccc2c1CCN(C(=O)/C(C#N)=C/C(C)(C)C)C2C(C)C (mixture of isomers) [Compound C95, (E/Z)-2-(5-(((2,6-dimethoxy-4-(1,4,5-trimethyl-6-oxo-1,6-dihydropyridin-3-yl)benzyl)(methyl)amino)methyl)-1-isopropyl-1,2,3,4-tetrahydroisoquinoline-2-carbonyl)-4,4-dimethylpent-2-enenitrile] | 10 to 25 nM | 40 to 70%
10 | COc1cc(-c2cn(C)c(=O)c(C)c2C)cc(OC)c1CN1C[C@H](C)N(Cc2cccc3c2CCN(C(=O)/C(C#N)=C/C(C)(C)CF)C3C(C)C)C[C@H]1C (mixture of isomers) [Compound C98, (E/Z)-2-(5-(((2S,5R)-4-(2,6-dimethoxy-4-(1,4,5-trimethyl-6-oxo-1,6-dihydropyridin-3-yl)benzyl)-2,5-dimethylpiperazin-1-yl)methyl)-1-isopropyl-1,2,3,4-tetrahydroisoquinoline-2-carbonyl)-5-fluoro-4,4-dimethylpent-2-enenitrile] | 10 to 25 nM | > 75%
11 | COc1cc(-c2cn(C)c(=O)c(C)c2C)cc(OC)c1CN1CCN(Cc2ccc3c(c2)C(C)N(C(=O)/C(C#N)=C/C(C)(C)C)CC3)C2(CC2)C1 (mixture of isomers) [Compound C106, (E/Z)-2-(7-((7-(2,6-dimethoxy-4-(1,4,5-trimethyl-6-oxo-1,6-dihydropyridin-3-yl)benzyl)-4,7-diazaspiro[2.5]octan-4-yl)methyl)-1-methyl-1,2,3,4-tetrahydroisoquinoline-2-carbonyl)-4,4-dimethylpent-2-enenitrile] | < 1.25 nM | > 75%
12 | COc1cc(-c2cn(C)c(=O)c(C)c2C)cc(OC)c1CN1CCN(Cc2cccc3c2CCN(C(=O)/C(C#N)=C/C(C)(C)C)[C@H]3C)C2(CC2)C1 (single isomer, unassigned) [Compound B146, (E/Z)-2-(5-((7-(2,6-dimethoxy-4-(1,4,5-trimethyl-6-oxo-1,6-dihydropyridin-3-yl)benzyl)-4,7-diazaspiro[2.5]octan-4-yl)methyl)-1-methyl-1,2,3,4-tetrahydroisoquinoline-2-carbonyl)-4,4-dimethylpent-2-enenitrile] | < 1.25 nM | > 75%
13 | COc1cc(-c2cn(C)c(=O)c(C)c2C)cc(OC)c1CN1CCCN(Cc2cccc3c2CCN(C(=O)/C(C#N)=C/C(C)(C)C)[C@@H]3C)CC1 (single isomer, unassigned) [Compound B192, (E/Z)-2-(5-((4-(2,6-dimethoxy-4-(1,4,5-trimethyl-6-oxo-1,6-dihydropyridin-3-yl)benzyl)-1,4-diazepan-1-yl)methyl)-1-methyl-1,2,3,4-tetrahydroisoquinoline-2-carbonyl)-4,4-dimethylpent-2-enenitrile] | 1.25 to 10 nM | > 75%
14 | COc1cc(-c2cn(C)c(=O)c(C)c2C)cc(OC)c1CN1CCN(Cc2cccc3c2CCN(C(=O)/C(C#N)=C/C2(C)CCOCC2)[C@@H]3C)C2(CC2)C1 (single isomer, unassigned) [Compound B193, (E/Z)-2-(5-((7-(2,6-dimethoxy-4-(1,4,5-trimethyl-6-oxo-1,6-dihydropyridin-3-yl)benzyl)-4,7-diazaspiro[2.5]octan-4-yl)methyl)-1-methyl-1,2,3,4-tetrahydroisoquinoline-2-carbonyl)-3-(4-methyltetrahydro-2H-pyran-4-yl)acrylonitrile] | < 1.25 nM | > 75%
15 | COc1cc(-c2cn(C)c(=O)c(C)c2C)cc(OC)c1CN1CCN(Cc2cccc3c2CCN(C(=O)/C(C#N)=C/C2(C)CCOCC2)[C@H]3C)C2(CC2)C1 (single isomer, unassigned) [Compound B194, (E/Z)-2-(5-((7-(2,6-dimethoxy-4-(1,4,5-trimethyl-6-oxo-1,6-dihydropyridin-3-yl)benzyl)-4,7-diazaspiro[2.5]octan-4-yl)methyl)-1-methyl-1,2,3,4-tetrahydroisoquinoline-2-carbonyl)-3-(4-methyltetrahydro-2H-pyran-4-yl)acrylonitrile] | 1.25 to 10 nM | 40 to 70%
16 | COc1cc(-c2cn(C)c(=O)c(C)c2C)cc(OC)c1CN1CCN(Cc2cccc3c2CCN(C(=O)/C(C#N)=C/C(C)(C)CF)C3C)C2(CC2)C1 (single isomer, unassigned) [Compound B195, (E/Z)-2-(5-((7-(2,6-dimethoxy-4-(1,4,5-trimethyl-6-oxo-1,6-dihydropyridin-3-yl)benzyl)-4,7-diazaspiro[2.5]octan-4-yl)methyl)-1-methyl-1,2,3,4-tetrahydroisoquinoline-2-carbonyl)-5-fluoro-4,4-dimethylpent-2-enenitrile] | < 1.25 nM | > 75%
17 | COc1cc(-c2cn(C)c(=O)c(C)c2C)cc(OC)c1CN1CCN(Cc2cccc3c2CCN(C(=O)/C(C#N)=C/C(C)(C)CF)[C@@H]3C)C2(CC2)C1 (single isomer, unassigned) [Compound B196, (E/Z)-2-(5-((7-(2,6-dimethoxy-4-(1,4,5-trimethyl-6-oxo-1,6-dihydropyridin-3-yl)benzyl)-4,7-diazaspiro[2.5]octan-4-yl)methyl)-1-methyl-1,2,3,4-tetrahydroisoquinoline-2-carbonyl)-5-fluoro-4,4-dimethylpent-2-enenitrile] | 1.25 to 10 nM | 70 to 75%
18 | COc1cc(-c2cn(C)c(=O)c(C)c2C)cc(OC)c1CN1CCN(Cc2cccc3c2CCN(C(=O)/C(C#N)=C/C(C)(C)C)[C@H]3C)[C@@H](C)C1 (single isomer, unassigned) [Compound B197] | 25 to 1000 nM | 40 to 70%
